The values below come from patent US7326708B2, “Phosphoric acid salt of a dipeptidyl peptidase-IV inhibitor” (Merck & Co., Inc., priority 2003, dated 2008).

As a reminder, the solubility is how much of the substance goes into solution per volume.

A short description of series [1]: solubility in water. The series is classed as physicochemical.
Series [2] in a line: physical (crystal form) stability of the solid. The series is classed as physicochemical. Conditions: for stability of the crystal form: ambient condition.

On to `NC(CC(=O)N1CCn2c(nnc2C(F)(F)F)C1)Cc1cc(F)c(F)cc1F` (stereo not drawn) [4-oxo-4-[3-(trifluoromethyl)-5,6-dihydro[1 ,2,4]triazolo[4,3-a]pyrazin-7(8H)-yl]-1-(2,4,5-trifluorophenyl) butan-2-amine], for which, in series [1], the “solubility in water (in words)” value is given as “high solubility in water”.
`N[C@@H](CC(=O)N1CCn2c(nnc2C(F)(F)F)C1)Cc1cc(F)c(F)cc1F` [(2R)-4-oxo-4-[3-(trifluoromethyl)-5,6-dihydro[1,2,4]triazolo[4,3-a]pyrazin-7(8H)-yl]-1-(2,4,5-trifluorophenyl)butan-2-amine dihydrogenphosphate monohydrate]: the “stability of the crystal form” value in series [2] is given as “stable under ambient condition”. Besides, the “crystal form change on heating” value in series [2] (heated to above 40° C. under very dry nitrogen flow) is given as “convert to dehydrated monohydrate”. In addition, in series [1], the solubility is approximately 72 mg/mL and the “solubility in water (in words)” value is “high solubility in water”.
On to `N[C@@H](CC(=O)N1CCn2c(nnc2C(F)(F)F)C1)Cc1cc(F)c(F)cc1F.O=P(O)(O)O` [Dehydrated monohydrate], for which the “stability of the crystal form” value in series [2] was “converted back to monohydrate”.
